Data: PMC11736144, “A sleepy cannabis constituent: cannabinol and its active metabolite influence sleep architecture in rats” (Neuropsychopharmacology, 2024)
Where two headings read alike, the source gives them in different places.

Assays:
[1] = Pharmacokinetic analysis of CBN and metabolites in rat plasma and brain (LC-MS/MS); type: in vivo; details: for Kp: brain and plasma, 10 mg/kg, read-out: Brain/plasma ratio
Description: Rats received 10 mg/kg CBN IP at approximately ZT13. Rats were then anesthetized with isoflurane at selected ZT points (13, 13.5, 14, 15, 17, 19, and 21) and blood was collected by terminal cardiac puncture. Brains were harvested, snap frozen on dry ice and plasma was isolated via centrifugation at 9000 × g for 10 min at 4 °C. All tissues were stored at −80 °C until analysis. CBN and metabolite concentrations in plasma and brain samples were assayed by liquid chromatography-tandem mass spectrometry (LC–MS/MS) using a using a Shimadzu Nexera LC-30AD UHPLC system coupled to a Shimadzu SPD-20AV photodiode array detector and a Shimadzu LC–MS-8040 triple-quadrupole mass spectrometer, equipped with an electrospray ionization (ESI) source (Shimadzu Corp.; Kyoto, Japan) as described previously.
LC-MS/MS. Plasma samples (50 µL) were spiked with internal standard (12.5 µg/mL d3-THC, 5 µL) and protein precipitation was achieved by vortex-mixing with a 3x volume of ice-cold acetonitrile. The organic layer was isolated by centrifugation (6000 g for 10 min, 4 °C) and evaporated to dryness using N2 gas. Samples were reconstituted in acetonitrile (90 µL) and 0.1% ammonium formate in water (300 µL) for supported-liquid extraction (SLE) using dichloromethane and methyl tert-butyl ether Biotage Isolute SLE+ columns (Uppsala, Sweden) as previously described. Brain samples were prepared as described for plasma samples with minor modifications. Briefly, each half brain was homogenised in methanol: water (2:1, 10x, w/v) and spiked with d3-THC as an internal standard. Homogenates were centrifuged (20,000 g for 30 min, 4 °C). Supernatants were then extracted and prepared as described above.
Quantification of CBN, 11-OH-CBN and 11-COOH-CBN in plasma and brain samples was performed by comparing experimental samples to eight-point standard curves prepared with known amounts of cannabinoid. Plasma and brain concentrations at each time point were averaged and pharmacokinetic parameters were calculated by noncompartmental analysis. Elimination rate constants were determined by linear regression of the terminal component of the concentration-time curve using GraphPad Prism 8.2 (La Jolla, USA). The log-linear trapezoidal method was used to calculate the area under concentration-time curve using equations described previously.

human CB2 receptors = molecular target: T1, human CB2 receptors (Homo sapiens, UniProt P34972); assay: Membrane potential (GIRK) assay in AtT20 cells, human CB2; type: cell-based; details: at 30 µM; normalized to 1 µM CP 55,940
T1 construct: expressed in transfected cells; host or cells: mouse AtT20 FlpIn cells

human CB1 receptors = human CB1 receptors (Homo sapiens, UniProt P21554); assay: cell-based; type: cell-based; parameters: expressed in transfected cells; host or cells: mouse AtT20 FlpIn cells
rat CB1 receptors = tested on: rat CB1 receptors; parameters: method as in PMID 9379442; details: adenylyl cyclase inhibition; higher potency than CBN; efficacy not reported; cited from earlier work
male Long-Evans rats = assay: Acute polysomnography (wireless EEG/EMG telemetry) in rats; details: for NREM delta power / REM theta power: EEG power spectra; for NREM delta power: overall effect; for NREM delta power / REM theta power / body temperature / locomotor activity counts: acute IP; for NREM delta power / REM theta power / total sleep time / % NREM sleep / % REM sleep / % active wake / % quiet wake / NREM sleep onset latency / REM bout duration / REM bout number / REM sleep onset latency / cumulative total sleep time / mean duration of NREM bouts per hour / number of NREM bouts per hour / total wake time / body temperature / locomotor activity counts: zolpidem 10 mg/kg; for total sleep time: acute IP at ZT13 (dark phase) vs vehicle, n = 8; for body temperature: subcutaneous; for body temperature / locomotor activity counts: telemetry
mice = details: cited from earlier work; for NREM: mice
rats = tested on: rats; parameters: method as in PMID 28934522, PMID 37507813; details: cited from earlier work
rabbits = tested on: rabbits; parameters: method as in PMID 4355439; details: cited from earlier work
[2] = parameters: method as in PMID 4337346; details: early human study; cited from earlier work
[3] = ip, rat plasma after CBN 10 mg/kg, post-dose, read-out: plasma Tmax (converted)
[4] = rat brain after CBN 10 mg/kg IP, analyte as labelled
[5] = rat brain after CBN 10 mg/kg IP, analyte as labelled, n = 4
[6] = rat plasma after CBN 10 mg/kg IP, analyte as labelled
[7] = rat plasma after CBN 10 mg/kg IP, analyte as labelled, n = 4
[8] = rat, ip, rat, after CBN 10 mg/kg IP, analyte as labelled
[9] = CBN 10, 30, 100 mg/kg, 11-OH-CBN 1, 3, 10 mg/kg
[10] = acute IP at ZT13 vs vehicle, CBN 10, 30, 100 mg/kg, 11-OH-CBN 1, 3, 10 mg/kg

Sequence of human CB1 receptors (P21554 whole entry): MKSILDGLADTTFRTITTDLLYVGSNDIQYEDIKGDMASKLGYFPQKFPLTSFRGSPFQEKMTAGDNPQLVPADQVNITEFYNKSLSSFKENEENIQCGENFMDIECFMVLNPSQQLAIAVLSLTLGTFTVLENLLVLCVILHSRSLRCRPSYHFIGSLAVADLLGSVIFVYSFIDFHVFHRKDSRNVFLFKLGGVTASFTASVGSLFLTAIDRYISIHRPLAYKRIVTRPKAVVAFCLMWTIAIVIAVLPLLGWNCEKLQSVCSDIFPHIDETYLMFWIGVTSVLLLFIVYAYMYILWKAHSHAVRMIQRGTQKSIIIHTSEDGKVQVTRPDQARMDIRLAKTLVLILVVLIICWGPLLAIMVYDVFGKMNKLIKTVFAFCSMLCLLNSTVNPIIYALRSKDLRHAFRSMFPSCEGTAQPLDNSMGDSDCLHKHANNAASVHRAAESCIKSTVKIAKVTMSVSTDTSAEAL
T1 sequence (P34972 whole entry): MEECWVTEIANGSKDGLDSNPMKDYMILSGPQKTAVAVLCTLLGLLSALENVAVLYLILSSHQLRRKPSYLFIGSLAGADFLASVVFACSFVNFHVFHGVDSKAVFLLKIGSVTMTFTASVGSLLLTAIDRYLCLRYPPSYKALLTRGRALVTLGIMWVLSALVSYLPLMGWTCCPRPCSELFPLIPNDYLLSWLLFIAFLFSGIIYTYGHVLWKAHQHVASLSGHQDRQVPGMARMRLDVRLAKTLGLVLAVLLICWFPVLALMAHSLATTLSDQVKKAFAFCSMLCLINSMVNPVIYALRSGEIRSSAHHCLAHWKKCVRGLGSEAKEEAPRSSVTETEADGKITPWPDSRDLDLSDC

## CCCCCc1cc(O)c2c(c1)OC(C)(C)c1ccc(C(=O)O)cc1-2 [11-COOH-CBN, 11-carboxy-cannabinol]
[1]; ip, rat brain after CBN 10 mg/kg, read-out: brain T1/2 (converted)
  half-life: 3.48 h
[1]; [3]
  Tmax: 1 h
[1]; ip, rat plasma after CBN 10 mg/kg, read-out: t1/2 plasma (converted)
  half-life: 4.52 h
[1]; [4]
  Brain AUC∞: 137 pg hour/mg brain
  Brain t½: 3.48 h
[1]; [5]
  Brain Cmax: 28 ± 5 pg/mg brain
[1]; rat brain after CBN 10 mg/kg IP, analyte as labelled, read-out: Brain tmax
  Tmax: 2 h
[1]; [6]
  Plasma AUC∞: 1181 ng·h/mL
  Plasma t½: 4.52 h
[1]; [7]
  Cmax: 169 ± 38 ng/mL
[1]; [8]
  Kp: 0.12
Human CB2 receptors
  activity at CB2: 41 ± 2%
Human CB1 receptors; 30 µM (highest concentration tested), normalized to 1 µM CP 55,940
  response at CB1: 43 ± 7%
Human CB1 receptors; membrane potential assay
  activity at CB1 receptors (in words): minimal activity

## CCCCCc1cc(O)c2c(c1)OC(C)(C)c1ccc(CO)cc1-2 [11-OH-CBN, 11-hydroxy-cannabinol]
[1]; ip, rat brain after CBN 10 mg/kg, read-out: brain Tmax
  Tmax: 2 h
[1]; [3]
  Tmax: 1 h
[1]; ip, rat, after CBN 10 mg/kg, similar in plasma and brain, read-out: half-life in plasma and brain (converted)
  half-life: ~2 h
[1]; [4]
  Brain AUC∞: 1539 pg hour/mg brain
[1]; [5]
  Brain Cmax: 419 ± 37 pg/mg brain
[1]; rat brain after CBN 10 mg/kg IP, analyte as labelled, read-out: Brain t½ (converted)
  half-life: 2.08 h
[1]; rat brain following systemic administration of CBN
  Brain Cmax: 1.3 µM
[1]; [6]
  Plasma AUC∞: 493 ng·h/mL
[1]; [7]
  Cmax: 170 ± 18 ng/mL
[1]; rat plasma after CBN 10 mg/kg IP, analyte as labelled, read-out: Plasma t½ (converted)
  half-life: 2.18 h
[1]; rat, after CBN 10 mg/kg IP, analyte as labelled
  Brain/plasma ratio: ~3
[1]; [8]
  Kp: 3.12
Human CB2 receptors
  activity at CB2: 50 ± 6%
Rat CB1 receptors
  potency at rat CB1 receptors: low nM range
Male Long-Evans rats; [9]
  NREM delta power: significantly increased
  REM theta power: significantly increased
  total sleep time: did not significantly increase
  body temperature: decreased
  locomotor activity counts: biphasic effect
Male Long-Evans rats; acute IP at ZT13
  delayed onset of action on % NREM sleep, time post-dosing: 3 to 4 h
Male Long-Evans rats; [10]
  cumulative NREM time: biphasic effect
  cumulative REM time: suppressed I cumulative REM at the highest dose
  % NREM sleep: increased
  % REM sleep: biphasically affected
  % active wake: decreased
  % quiet wake: decreased
  NREM sleep onset latency: increased
  REM bout duration: did not affect
  REM bout number: affected
  REM sleep onset latency: increased
  cumulative total sleep time: biphasically influenced
  mean duration of NREM bouts per hour: significantly decreased
  number of NREM bouts per hour: increased
  total wake time: did not significantly reduce
Human CB1 receptors; CB1, membrane potential assay, AtT20 cells, read-out: pEC50 (converted)
  EC50: 1000 nM
Human CB1 receptors; CB1, normalized to 1 µM CP 55,940, AtT20 cells, read-out: maximal response (Emax)
  Emax: 75 ± 3%
Human CB1 receptors; membrane potential assay
  activity at CB1 receptors (in words): modestly potent partial agonist

## O=S(=O)(F)CCCCCc1ccc(O)cc1 [AM3506]
mice
  REM: suppressed
  NREM: increased

## CCCCCCC(C)(C)c1ccc([C@H]2CCC[C@@H](O)C2)c(O)c1 [CP 47,497]
mice
  NREM: increased

## O=C(Oc1ccc([N+](=O)[O-])cc1)N1CCC(C(O)(c2ccc3c(c2)OCO3)c2ccc3c(c2)OCO3)CC1 [JZL184]
mice
  REM: suppressed
  NREM: increased

## Cc1ccc(-c2nc3ccc(C)cn3c2CC(=O)N(C)C)cc1 [zolpidem, reference compound]
Male Long-Evans rats; CBN 30 mg/kg and 100 mg/kg at ZT17 and 18, zolpidem 10 mg/kg at ZT13 and 14
  NREM delta power at specific time points: increase
Male Long-Evans rats; [9]
  NREM delta power: Neither CBN nor zolpidem had robust effects
  REM theta power: increased
  total sleep time: increased
  body temperature: did not robustly effect
  locomotor activity counts: decreased
Male Long-Evans rats; [10]
  % NREM sleep: increased
  % REM sleep: did not affect
  % active wake: decreased
  % quiet wake: did not affect
  NREM sleep onset latency: decreased
  REM bout duration: did not affect
  REM bout number: did not affect
  REM sleep onset latency: did not affect
  cumulative total sleep time: increased
  mean duration of NREM bouts per hour: increased
  number of NREM bouts per hour: unaffected
  total wake time: decreased

## CCCCCc1cc(O)c2c(c1)OC(C)(C)[C@@H]1CCC(C)=C[C@@H]21 [Δ^9-THC, Δ^9-tetrahydrocannabinol]
rats
  REM: suppressed
rabbits
  NREM and REM sleep: early-phase NREM and REM suppression, followed by a later phase increase in NREM sleep
[2]
  NREM and REM sleep: tended to increase NREM but suppress REM sleep
